According to US12291522B2, “Galectin-3 inhibitors” (BRISTOL-MYERS SQUIBB COMPANY, priority 2020, dated 2025):
Read-outs that look alike come from different tables or passages of the source.

Legend:
[1] = molecular target: His-tagged recombinant human Gal-3 (hGal-3) (Homo sapiens, UniProt P17931); test: Gal-3 HTRF assay (His-tagged hGal-3 / B-ASF); type: binding; conditions: 15 nM hGal-3, 15 nM B-ASF
Protocol: ASSAY BUFFER Composition: 25 mM HEPES, 100 mM NaCl, 0.005% Tween 20, 0.05% BSA prepared in sterile water (all reagents from Sigma).
• Positive Control: 100% DMSO (1 μL)+His-tagged hGal-3 (20 μL)+B-ASF (20 μL)+Anti-His Terbium Antibody (5 μL)+Strep d2 Antibody (5 μL). • Negative Control: 100% DMSO (1 μL)+His-tagged hGal-3 (20 μL)+Anti His Terbium Antibody (5 μL)+Strep d2 Aantibody (5 μL). Stocks Preparation:
PROTOCOL: The Gal-3 assays were performed in 384 white Opti plates in three replicates at room temperature with gentle shaking at 250-300 rpmFrom the original stocks, […] working stock concentrations of His-tagged recombinant human Gal-3 (hGal-3) and that of B-ASF were prepared. From the working stock, 20 μL of hGal-3 (15 nM) and 20 μL B-ASF (15 nM) were added to the plates. In Negative Control, only hGal-3 was added. A concentration range of 50× working stocks were prepared for the compounds in 100% DMSO. Aliquots of luL of the compounds were added to the wells and pre-incubated with 20 μL hGal-3 per well for 30 minutes Then 20 μL B-ASF wereadded and incubated for another 1 hour. To detect the signal, 5 μL (final conc. of 1.0 nM) terbium labelled Anti-His antibody was added and incubated for 30 min followed by adding 5 μL (final conc. of 20 nM) Streptavidin d2 and incubation for another 1 hour. The assay signal was detected using HTRF screen protocol (Excitation wavelength=340 nm, emission wavelength=615 nm/665 nm) on Envision 2104 Multilabel Reader. Data analysed using Toolset and Curve Master. Results are reported in the experimental section (IC50 in μM).

[2] = molecular target: T1, hCRBN (NanoLuc-CRBN fusion construct in HEK-293 cells) (Homo sapiens, UniProt Q96SW2); test: CRBN BRET Target Engagement; type: cell-based; conditions: NanoLuc-CRBN transfected HEK-293 cells, BRET with CRBN Probe
T1 construct: expressed in transfected cells; host or cells: HEK-293
T1 sequence (Q96SW2 whole entry, the tested form may be a part): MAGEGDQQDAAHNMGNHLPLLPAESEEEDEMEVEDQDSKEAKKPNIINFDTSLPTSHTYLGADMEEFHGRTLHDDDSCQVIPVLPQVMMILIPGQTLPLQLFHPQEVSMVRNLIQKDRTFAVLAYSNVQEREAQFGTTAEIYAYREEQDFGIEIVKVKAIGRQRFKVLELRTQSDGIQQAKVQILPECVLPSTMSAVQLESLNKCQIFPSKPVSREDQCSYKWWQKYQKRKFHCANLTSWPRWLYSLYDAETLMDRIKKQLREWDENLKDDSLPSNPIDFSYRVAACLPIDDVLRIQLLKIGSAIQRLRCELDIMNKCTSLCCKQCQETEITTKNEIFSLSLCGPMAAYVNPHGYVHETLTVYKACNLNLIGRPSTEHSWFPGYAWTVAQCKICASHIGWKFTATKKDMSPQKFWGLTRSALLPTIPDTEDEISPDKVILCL
Protocol: CRBN BRET Target Engagement (hCRBN IC50 (μM))
NanoLuc-CRBN fusion construct was transfected in HEK-293 cells using FuGENE HD (Promega) according to the manufacturer's protocol. In brief, Nluc-CRBN was diluted into Transfection Carrier DNA (Promega) 1:10 (mass/mass), to which FuGENE HD was 1:3 (μg DNA:μL FuGENE HD). One part (vol) of DNA:FuGENE HD complexes were combined with 20 parts (vol) of HEK-293 cells suspended at a density of […]. Cells were incubated for ˜20 hr at 37° C./5% CO2. Following transfection, cells were washed and resuspended at 200,000 cells/mL in OptiMEM without phenol red (Gibco).
For BRET measurements, cells were seeded in a 384-well nonbinding surface plate (Corning) plate for a final count of 10,000 cells/well. Compounds were dissolved at 10 mM in dimethylsulfoxide (DMSO) and evaluated at eleven concentrations using a high concentration of […]. CRBN Probe was used for equilibrium measurements, employing a final concentration of approximately EC50-80. For live-cell measurements, 20 nM of CRBN Probe was added. For the live-cell assay conditions, the plates were incubated for 2 hours at 37° C./5% CO2. NanoBRET NanoGlo Substrate and Extracellular Nanoluc Inhibitor (Promega) were added according to manufacturer's guidelines. For lytic cell measurements, digitonin was added to the cells to a final concentration of 50 μg/mL and 20 nM of CRBN Probe was added. To measure NanoBRET in permeabilized cells, extracellular Nluc inhibitor was omitted during the detection step. For all BRET experiments, the Envision 2015 (Perkin Elmer) equipped with a BRET2 Enh mirror, BRET 647 nM/75 nM Bandwidth and BC703 460 nM/80 nM Bandwidth filters was used for readouts. Each read was integrated for 0.5 s.
To determine compound potency (IC50), BRET ratios for each dilution series was first normalized to a % Inhibition value via Equation 1, where “S” represents Sample BRET, “B” represents Background BRET, and “T” represents Total BRET. In this equation, the background control (B) consists of NanoLuc-CRBN expressing cells and no CRBN Probe. The total BRET Ratio (T) consists of NanoLuc-CRBN expressing cells, CRBN Probe, and an amount of DMSO at a concentration equivalent to that added when testing compounds.
Following normalization, the percent inhibition values are plotted as a function of compound concentration and fit to Equation 2. […]

[3] = molecular target: T2, Gal3 (Human Galectin-3) in THP-1 cells (Homo sapiens, UniProt P17931); test: ELISA Gal3 Degradation Assay in THP-1 Cells; type: cell-based; conditions: 48 hours, culture media Gal3 by ELISA
T2 construct: host or cells: THP-1
T2 sequence (P17931 whole entry): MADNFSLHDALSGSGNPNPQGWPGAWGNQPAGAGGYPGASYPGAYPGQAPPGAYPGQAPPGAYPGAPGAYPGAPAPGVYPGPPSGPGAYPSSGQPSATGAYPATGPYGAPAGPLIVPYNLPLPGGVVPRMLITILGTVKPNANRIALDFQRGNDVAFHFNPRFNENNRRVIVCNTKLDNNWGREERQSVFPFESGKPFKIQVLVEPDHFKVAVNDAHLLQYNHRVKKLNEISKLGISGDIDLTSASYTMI
Protocol: [formula] ELISA Gal3 Degradation Assay in THP-1 Cells
THP-1 cells (ATCC, Cat #TIB-202), a human monocyte cell line derived from leukemia were plated at 2E6 cells/mL in 200 uL/well of RPMI 1640 (ThermoFisher, Cat #11835) in 96-well plates. Cells were treated with DMSO as a control and various concentrations of compounds for 48 hours. After the treatment, the culture media were collected. The PBS washed cell pellets were lysed in Lysis Buffer (Cell Signaling, Cat #9803) supplemented with 1XProtease Inhibitor Cocktail (Cell Signaling, Cat #5872). Gal3 levels in culture media and cell lysates were quantified by ELISA assays (Human Galectin-3 DuoSet ELISA kit, R&D Systems, Cat #DY1154) according to manufacturer's instructions. The cell culture media were also used for the assessment of cellular toxicity (LDH Assay kit, R&D Systems, DY994). The IC50 (degradation concentration at 50%) values were calculated based on the cellular Gal3 protein levels using DMSO as the control.

[4] = test 1, read-out: Supernatant (IC50) test 1
[5] = test 2, read-out: Supernatant (IC50) test 2

Chain of His-tagged recombinant human Gal-3 (hGal-3) (P17931 whole entry): as above

IC50 [1] [nM] | IC50 [2] [nM] | Compound | IC50 [3, 4] [nM] | IC50 [3, 5] [nM]
48 | 1420 | Cc1nc([C@@H]2O[C@H](CO)[C@H](O)[C@H](n3cc(-c4cc(F)c(Cl)c(F)c4)nn3)[C@H]2OCC(=O)N2CC(Oc3ccc(C(=O)Nc4ccc5c(c4)CN(C4CCC(=O)NC4=O)C5=O)cc3)C2)n(-c2cc(Cl)ccc2C(F)(F)F)n1 (stereo partly drawn) [Example 8, 4-((1-(2-(((2S,3R,4S,5R,6R)-2-(1-(5-Chloro-2-(trifluoromethyl)phenyl)-3-methyl-1H-1,2,4-triazol-5-yl)-4-(4-(4-chloro-3,5-difluorophenyl)-1H-1,2,3-triazol-1-yl)-5-hydroxy-6-(hydroxymethyl)tetrahydro-2H-pyran-3-yl)oxy)acetyl)azetidin-3-yl)oxy)-N-(2-(2,6-dioxopiperidin-3-yl)-1-oxoisoindolin-5-yl)benzamide] | 281 | 38
51 | 17 | Cc1nc([C@@H]2O[C@H](CO)[C@H](O)[C@H](n3cc(-c4cc(F)c(Cl)c(F)c4)nn3)[C@H]2OCC(=O)N2Cc3ccc(C(=O)Nc4ccc5c(c4)CN(C4CCC(=O)NC4=O)C5=O)cc3C2)n(-c2cc(Cl)ccc2C(F)(F)F)n1 (stereo partly shown) [Example 19] | – | –
212 | 2160 | Cc1nc([C@@H]2O[C@H](CO)[C@H](O)[C@H](n3cc(-c4cc(F)c(Cl)c(F)c4)nn3)[C@H]2OCC(=O)N(CCl)CCCOc2ccc(C(=O)Nc3ccc4c(c3)CN(C3CCC(=O)NC3=O)C4=O)cc2)n(-c2cc(Cl)ccc2C(F)(F)F)n1 (stereo partly shown) [Example 24] | – | –
98 | 10400 | Cc1nc([C@@H]2O[C@H](CO)[C@H](O)[C@H](n3cc(-c4cc(F)c(Cl)c(F)c4)nn3)[C@H]2OCC(=O)N2CC(Oc3ccc(C(=O)Nc4ccc5c(c4)CN(C4CCC(=O)N(C)C4=O)C5=O)cc3)C2)n(-c2cc(Cl)ccc2C(F)(F)F)n1 (stereo partly shown) [Example 28] | – | –
160 | 350 | Cc1nc([C@@H]2O[C@H](CO)[C@H](O)[C@H](n3cc(-c4cc(F)c(Cl)c(F)c4)nn3)[C@H]2OCC(=O)N2CC3(CC(COc4ccc(C(=O)Nc5ccc6c(c5)CN(C5CCC(=O)NC5=O)C6=O)cc4)C3)C2)n(-c2cc(Cl)ccc2C(F)(F)F)n1 (stereo partly shown) [Example 29] | – | –

Compound | IC50 [1] [nM] | IC50 [2] [nM] | IC50 [3, 4] [nM] | IC50 [3, 5] [nM]
Cc1nc([C@@H]2O[C@H](CO)[C@H](O)[C@H](n3cc(-c4cc(F)c(Cl)c(F)c4)nn3)[C@H]2OCC(=O)N[C@H]2C[C@@H](Oc3ccc(C(=O)Nc4ccc5c(c4)CN(C4CCC(=O)NC4=O)C5=O)cc3)C2)n(-c2cc(Cl)ccc2C(F)(F)F)n1 (stereo partly drawn) [Example 3, 4-(cis-3-(2-(((2S,3R,4S,5R,6R)-2-(1-(5-Chloro-2-(trifluoromethyl)phenyl)-3-methyl-1H-1,2,4-triazol-5-yl)-4-(4-(4-chloro-3,5-difluorophenyl)-1H-1,2,3-triazol-1-yl)-5-hydroxy-6-(hydroxymethyl)tetrahydro-2H-pyran-3-yl)oxy)acetamido)cyclobutoxy)-N-(2-(2,6-dioxopiperidin-3-yl)-1-oxoisoindolin-5-yl)benzamide] | 70 | 126 | < 10 | 48
Cc1nc([C@@H]2O[C@H](CO)[C@H](O)[C@H](n3cc(-c4cc(F)c(Cl)c(F)c4)nn3)[C@H]2OCC(=O)N[C@H]2C[C@@H](Oc3ccc(C(=O)Nc4ccc5c(c4)CN(C4CCC(=O)NC4=O)C5=O)nc3)C2)n(-c2cc(Cl)ccc2C(F)(F)F)n1 (stereo partly drawn) [Example 4, 5-(cis-3-(2-(((2S,3R,4S,5R,6R)-2-(1-(5-Chloro-2-(trifluoromethyl)phenyl)-3-methyl-1H-1,2,4-triazol-5-yl)-4-(4-(4-chloro-3,5-difluorophenyl)-1H-1,2,3-triazol-1-yl)-5-hydroxy-6-(hydroxymethyl)tetrahydro-2H-pyran-3-yl)oxy)acetamido)cyclobutoxy)-N-(2-(2,6-dioxopiperidin-3-yl)-1-oxoisoindolin-5-yl)picolinamide] | 81 | 174 | 68 | 96
Cc1nc([C@@H]2O[C@H](CO)[C@H](O)[C@H](n3cc(-c4cc(F)c(Cl)c(F)c4)nn3)[C@H]2OCC(=O)N[C@H]2C[C@@H](Oc3ccc(C(=O)Nc4ccc5c(c4)CN([C@H]4CCC(=O)NC4=O)C5=O)nc3)C2)n(-c2cc(Cl)ccc2C(F)(F)F)n1 [Example 5, 5-(cis-3-(2-(((2S,3R,4S,5R,6R)-2-(1-(5-chloro-2-(trifluoromethyl)phenyl)-3-methyl-1H-1,2,4-triazol-5-yl)-4-(4-(4-chloro-3,5-difluorophenyl)-1H-1,2,3-triazol-1-yl)-5-hydroxy-6-(hydroxymethyl)tetrahydro-2H-pyran-3-yl)oxy)acetamido)cyclobutoxy)-N-(2-((S)-2,6-dioxopiperidin-3-yl)-1-oxoisoindolin-5-yl)picolinamide] | 84 | 39 | < 10 | < 10
Cc1nc([C@@H]2O[C@H](CO)[C@H](O)[C@H](n3cc(-c4cc(F)c(Cl)c(F)c4)nn3)[C@H]2OCC(=O)N[C@H]2C[C@@H](Oc3ccc(C(=O)Nc4ccc5c(c4)CN([C@@H]4CCC(=O)NC4=O)C5=O)nc3)C2)n(-c2cc(Cl)ccc2C(F)(F)F)n1 [Example 6, 5-(cis-3-(2-(((2S,3R,4S,5R,6R)-2-(1-(5-chloro-2-(trifluoromethyl)phenyl)-3-methyl-1H-1,2,4-triazol-5-yl)-4-(4-(4-chloro-3,5-difluorophenyl)-1H-1,2,3-triazol-1-yl)-5-hydroxy-6-(hydroxymethyl)tetrahydro-2H-pyran-3-yl)oxy)acetamido)cyclobutoxy)-N-(2-((R)-2,6-dioxopiperidin-3-yl)-1-oxoisoindolin-5-yl)picolinamide] | 74 | > 50000 | 39 | 15
